Patent publication US9137996B2, “Fungicidal alkyl- and aryl-substituted 2[-2-chloro-4-(dihalo-phenoxy)-phenyl]-1-[1,2,4]triazol-1-yl-ethanol compounds” (BASF SE, priority 2011, dated 2015)

Test system: Phakopsora pachyrhizi
Assay: Protective control of soy bean rust on soy beans (Phakpa P1), green house
Assay type: in vivo, Phakopsora pachyrhizi on soy bean seedlings
Conditions: 300 ppm active substance, sprayed 1 day before inoculation, assessed after fourteen days; untreated plants 90% infected
Description: The spray solutions were prepared in several steps:
The stock solution were prepared: a mixture of acetone and/or dimethylsulfoxide and the wetting agent/emulsifier Wettol, which is based on ethoxylated alkylphenoles, in a relation (volume) solvent-emulsifier of 99 to 1 was added to 25 mg of the compound to give a total of 5 ml. Water was then added to total volume of 100 ml. This stock solution was diluted with the described solvent-emulsifier-water mixture to the given concentration. 1. Protective control of soy bean rust on soy beans caused by Phakopsora pachyrhizi (Phakpa P1)
Leaves of pot-grown soy bean seedlings were sprayed to run-off with an aqueous suspension, containing the concentration of active ingredient or their mixture as described below. The plants were allowed to air-dry. The trial plants were cultivated for 1 day in a greenhouse chamber at 23-27° C. and a relative humidity between 60 and 80%.Then the plants were inoculated with spores of Phakopsora pachyrhizi. To ensure the success the artificial inoculation, the plants were transferred to a humid chamber with a relative humidity of about 95% and 20 to 24 C for 24 h. The trial plants were cultivated for fourteen days in a greenhouse chamber at 23-27° C. and a relative humidity between 60 and 80%. The extent of fungal attack on the leaves was visually assessed as % diseased leaf area.

CC(O)(Cn1cncn1)c1ccc(Oc2ccc(Cl)cc2Cl)cc1Cl (stereo not shown) [I-1, 2-[2-chloro-4-(2,4-dichlorophenoxy)phenyl]-1-(1,2,4-triazol-1-yl)propan-2-ol]
infection (extent of fungal attack, % diseased leaf area): 10%
